Test results reported in patent publication US7468432B2, “Cobalamin conjugates useful as antitumor agents” (Mayo Foundation for Medical Education and Research, priority 1999, dated 2008).

Assays:
[1] = system: cells; details: in vitro neutron radiation of cells grown in the presence of compound; cited from earlier work
[2] = system: African green monkey (Vero) cells; details: concentration level of 1600 μM; cited from earlier work
[3] = system: transcobalamin proteins; assay: modified unsaturated Vitamin B12 binding capacity (UBBC) assay; parameters: species or system human; details: 0.4 ml patient serum treated with 4 μL analog (10 μg per ml normal saline), 20 minutes at room temperature; blocking of Co-57 cyanocobalamin binding; 5 patients, n=10
Experimental: In vitro biological activity of the carborane cyanocobalamin analogs. To assess the in vitro binding of the carborane cyanocobalamin (Example 1, CCC) and DTPA-aminopropylcobalamin (Example 3, DAPC) analogs to the transcobalamin proteins, the unsaturated Vitamin B12 binding capacity (UBBC) assay (see D. A. Collins and H. P. C. Hogenkamp, J. Nuclear Medicine, 1997, 38, 717-723) was performed. Serum was obtained from 5 patients being evaluated for pernicious anemia at the Mayo Clinic. The patients' serum first underwent a routine clinical UBBC as previously described. To determine if the CCC and DAPC analogs would inhibit Co-57 cyanocobalamin from binding to the transcobalamin proteins, the excess serum from the 5 patients underwent modified UBBC.
Specifically, under dim light, 0.4 ml serum was treated with 4 μL (concentration 10 μg CCC per ml normal saline) of the 2 CCC analogs, carborane-d-cyano-cobalamin and carborane-b-cyanocobalamin, and DAPC. The analogs were incubated for 20 minutes at room temperature with the patient's serum. Both the clinical run and the analog treated samples were assayed for UBBC as usual.
The percent PB of the analogs to transcobalamin protein was calculated as follows (PB=100−CCCUBBC cpm/clinical UBBC cpm×100). […]

average percent binding (PB) of the analogs to transcobalamin protein [3] | Compound | biological effect equivalent to a concentration of 10B [1] | cytotoxicity [2]
– | O=c1[nH]c(=O)n([C@H]2C[C@H](O)[C@@H](CO)O2)cc1B(O)O [5-dihydroloxyboryl-2′-deoxyuridine] | ~6 μg ^10B/g | not cytotoxic
98.21% | DTPA-aminopropylcarbalamin [DAPC] | – | –
